The results in this text go back to patent publication US9926297B2, “Bicyclic AZA compounds as muscarinic M1 receptor and/or M4 receptor agonists” (Heptares Therapeutics Limited, priority 2014, dated 2018).

Test [1] addresses human muscarinic M3 receptor (Homo sapiens, UniProt P20309). The test can be described thus: Alphascreen Surefire phospho-ERK1/2 functional assay, M3. The following applies: for Emax: CHO, read-out: % Emax cf. ACh, M3, CHO cells stably expressing human M3; for EC50: pEC50 M3, CHO cells stably expressing human M3, phospho-ERK1/2, * = variable results. For orientation: Alpha assays give light when donor and acceptor beads are brought close together.

For test [2], the target named is T1, human muscarinic M2 receptor (Homo sapiens, UniProt P08172).
T1 sequence (P08172 1-466): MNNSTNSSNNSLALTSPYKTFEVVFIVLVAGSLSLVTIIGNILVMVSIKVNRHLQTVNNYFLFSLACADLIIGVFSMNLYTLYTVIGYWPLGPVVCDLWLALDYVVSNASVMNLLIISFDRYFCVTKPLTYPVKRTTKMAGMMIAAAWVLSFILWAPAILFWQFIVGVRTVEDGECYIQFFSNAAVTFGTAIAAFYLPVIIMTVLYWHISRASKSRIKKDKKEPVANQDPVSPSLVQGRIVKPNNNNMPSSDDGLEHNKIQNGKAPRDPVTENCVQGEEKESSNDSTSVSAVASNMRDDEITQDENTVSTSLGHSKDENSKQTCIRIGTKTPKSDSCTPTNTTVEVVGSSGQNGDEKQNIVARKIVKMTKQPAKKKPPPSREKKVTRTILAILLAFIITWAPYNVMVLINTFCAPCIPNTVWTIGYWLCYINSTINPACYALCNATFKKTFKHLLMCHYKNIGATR
Put plainly: Alphascreen Surefire phospho-ERK1/2 functional assay, M2. The conditions noted are these: for Emax: CHO, read-out: % Emax cf. ACh, M2, CHO cells stably expressing human M2, relative to ACh.

The target of test [3] is T2, human muscarinic M1 receptor (Homo sapiens, UniProt P11229).
T2 sequence (P11229 1-460): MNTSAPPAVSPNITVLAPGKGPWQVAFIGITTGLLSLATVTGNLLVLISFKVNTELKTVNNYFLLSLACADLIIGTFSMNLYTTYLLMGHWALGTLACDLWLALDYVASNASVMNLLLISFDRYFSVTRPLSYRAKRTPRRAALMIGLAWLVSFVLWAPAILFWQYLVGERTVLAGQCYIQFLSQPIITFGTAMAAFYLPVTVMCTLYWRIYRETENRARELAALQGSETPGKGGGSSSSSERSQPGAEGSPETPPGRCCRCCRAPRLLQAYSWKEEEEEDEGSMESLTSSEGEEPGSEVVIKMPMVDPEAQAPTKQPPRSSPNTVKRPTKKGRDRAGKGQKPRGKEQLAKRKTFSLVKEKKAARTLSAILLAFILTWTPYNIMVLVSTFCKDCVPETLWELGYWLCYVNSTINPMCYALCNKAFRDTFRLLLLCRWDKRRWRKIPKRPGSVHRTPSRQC
The test can be described thus: Alphascreen Surefire phospho-ERK1/2 functional assay, M1. The format is cell-based. The following applies: for EC50: CHO cells stably expressing human M1, phospho-ERK1/2, * = variable results, read-out: pEC50 M1 (converted); for Emax: CHO, read-out: % Emax cf. ACh, M1, CHO cells stably expressing human M1, relative to ACh.

Test [4] deals with T3, human muscarinic M4 receptor (Homo sapiens, UniProt P08173).
T3 construct: expressed in transfected cells
T3 sequence (P08173 1-479): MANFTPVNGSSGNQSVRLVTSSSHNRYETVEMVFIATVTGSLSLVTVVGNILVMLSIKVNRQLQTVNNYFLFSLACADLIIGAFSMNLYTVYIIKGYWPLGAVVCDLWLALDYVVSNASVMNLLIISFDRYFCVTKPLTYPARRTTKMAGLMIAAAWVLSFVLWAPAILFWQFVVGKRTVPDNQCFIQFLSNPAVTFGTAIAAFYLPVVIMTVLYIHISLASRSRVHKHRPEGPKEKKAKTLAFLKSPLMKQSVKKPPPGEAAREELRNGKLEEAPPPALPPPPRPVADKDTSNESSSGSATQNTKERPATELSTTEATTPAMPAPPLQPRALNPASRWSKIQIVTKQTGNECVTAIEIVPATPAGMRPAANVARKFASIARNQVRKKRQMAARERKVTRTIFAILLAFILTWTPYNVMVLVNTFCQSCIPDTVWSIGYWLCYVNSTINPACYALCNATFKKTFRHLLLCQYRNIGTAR
Put plainly: Alphascreen Surefire phospho-ERK1/2 functional assay, M4. The format is cell-based. The conditions noted are these: for EC50: CHO cells stably expressing human M4, phospho-ERK1/2, * = variable results, read-out: pEC50 M4 (converted); for Emax: CHO, read-out: % Emax cf. ACh, M4, CHO cells stably expressing human M4, relative to ACh.

human muscarinic M3 receptor, sequence (P20309 whole entry): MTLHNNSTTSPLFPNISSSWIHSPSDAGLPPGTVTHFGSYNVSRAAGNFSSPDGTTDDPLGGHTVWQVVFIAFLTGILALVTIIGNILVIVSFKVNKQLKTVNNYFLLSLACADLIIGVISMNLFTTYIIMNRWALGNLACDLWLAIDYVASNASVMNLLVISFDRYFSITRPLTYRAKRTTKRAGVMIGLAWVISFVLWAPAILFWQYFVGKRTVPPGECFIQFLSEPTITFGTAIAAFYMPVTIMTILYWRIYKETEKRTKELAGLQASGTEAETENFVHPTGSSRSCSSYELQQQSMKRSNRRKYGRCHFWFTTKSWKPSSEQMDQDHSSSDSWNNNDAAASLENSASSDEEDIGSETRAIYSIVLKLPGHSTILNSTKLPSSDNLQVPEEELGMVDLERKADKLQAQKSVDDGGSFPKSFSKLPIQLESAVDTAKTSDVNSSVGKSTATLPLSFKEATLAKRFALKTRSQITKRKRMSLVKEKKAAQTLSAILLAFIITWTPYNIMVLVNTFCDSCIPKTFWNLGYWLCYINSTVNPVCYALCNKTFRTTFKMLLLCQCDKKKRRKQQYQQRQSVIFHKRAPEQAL

With `CCOC(=O)N1CCC2(CC(N3CCC(N4CC(F)(F)C[C@@H]4C(N)=O)CC3)C2)C1` (single isomer, unassigned) [2-90 Isomer 2], the Emax (as a rule, the maximal effect, on the per cent scale that the assay sets) turned out to be 1% in test [1] (relative to ACh), 4% in test [2], 54% in test [3] and 53% in test [4]. Further, the EC50 is over 20000 nM in test [1], over 20000 nM in test [2], 158 nM in test [3] and 12.6 nM in test [4].
As for `CCOC(=O)N1CCC2(CC(N3CCC([C@@H]4CCCN4C(=O)NC)CC3)C2)C1` (single isomer, unassigned) [2-17 Isomer 2], the Emax was determined as 4% in test [1] (relative to ACh), 5% in test [2], 72% in test [3] and 116% in test [4]. The EC50 in test [1] was over 20000 nM; in test [2], over 20000 nM; in test [3] it was 200 nM; in test [4], 3.16 nM.
Turning to `COC(=O)N1CCC2(CC(N3CCC(n4ccc(C)n4)CC3)C2)C1` (single isomer, unassigned) [1-45 Isomer 2, methyl 2-[4-(3-methyl-1H-pyrazol-1-yl)piperidin-1-yl]-6-azaspiro[3.4]octane-6-carboxylate], the Emax in test [1] (relative to ACh) came to 26%; in test [2], 56%; in test [3] it was 80%; in test [4] it was 80%. Also, the EC50 in test [1] is over 20000 nM; in test [2] it was 1580 nM; in test [3] it was 316 nM; in test [4], 20 nM.
On to `CCCn1nccc1C1CCN(C2CC3(CCN(C(=O)OCC)C3)C2)CC1` (single isomer, unassigned) [1-49 Isomer 2, ethyl 2-[4-(1-propyl-1H-pyrazol-5-yl)piperidin-1-yl]-6-azaspiro[3.4]octane-6-carboxylate], for which the Emax in test [1] (relative to ACh) came to 9%; in test [2], 21%; in test [3], 71%; in test [4] it was 92%. The EC50 in test [1] was over 20000 nM; in test [2] it was over 20000 nM; in test [3], 6310 nM; in test [4], 79.4 nM.
`CCOC(=O)N1CCC2(CC(N3CCC([C@@H]4CCCN4c4nccs4)CC3)C2)C1` (single isomer, unassigned) [2-82 Isomer 2]: the maximal effect (Emax) in test [1] (relative to ACh) is 0%; in test [2] it was 1%; in test [3] it was 52%; in test [4] it was 70%. In addition, the EC50 in test [1] was over 20000 nM; in test [2], over 20000 nM; in test [3], 501 nM; in test [4], 20 nM.
Turning to `CCOC(=O)N1CCC2(CC(N3CCC(C4CCCN4C(=O)NOC)CC3)C2)C1` (single isomer, unassigned) [2-24 Isomer 2, ethyl 2-{4-[1-(methoxycarbamoyl)pyrrolidin-2-yl]piperidin-1-yl}-6-azaspiro[3.4]octane-6-carboxylate], the maximal response (Emax) in test [1] (relative to ACh) came out at 9%; in test [2], 5%; in test [3] it was 37%; in test [4] it was 121%. Also, the EC50 in test [1] is over 20000 nM; in test [2] it was over 20000 nM; in test [3], 631 nM; in test [4], 20 nM.
Turning to `CCOC(=O)N1CCC2(CC(N3CCC(C4c5ccccc5CN4C(=O)NC)CC3)C2)C1` (single isomer, unassigned) [2-76 Isomer 1, ethyl 2-(4-(2-(methylcarbamoyl)-isoindolin-1-yl)piperidin-1-yl)-6-azaspiro[3.4]octane-6-carboxylate], the “% Emax cf. ACh, M3” value in test [1] (CHO cells stably expressing human M3, relative to ACh) was 35%. Also, the EC50 is over 20000 nM in test [1], over 20000 nM in test [2], 126 nM in test [3] and 39.8 nM in test [4]. Moreover, the figures for the Emax in test [2], in test [3] and in test [4] were 10%, 82% and 114%, respectively.
Take `CCOC(=O)N1CCC2(CC(N3CCC([C@@H]4CCCN4C(=O)OC4CCC4)CC3)C2)C1` (single isomer, unassigned) [2-43 Isomer 2]: the Emax in test [1] (relative to ACh) amounted to 5%; in test [2] it was 4%; in test [3], 19%; in test [4], 47%. The EC50 in test [1] was over 20000 nM; in test [2], over 20000 nM; in test [3], 3160 nM; in test [4], 50.1 nM.
Regarding `CCOC(=O)N1CCC2(CC(N3CCC(C4CCCN4C(=O)CNC)CC3)C2)C1` (single isomer, unassigned) [2-23 Isomer 2, ethyl 2-{4-[1-(N-methylglycyl)pyrrolidin-2-yl]piperidin-1-yl}-6-azaspiro[3.4]octane-6-carboxylate], the Emax worked out at 9% in test [1] (relative to ACh), 3% in test [2], 65% in test [3] and 104% in test [4]. The EC50 is over 20000 nM in test [1], over 20000 nM in test [2], 1260 nM in test [3] and 50.1 nM in test [4].
`CCOC(=O)N1CCC2(CC(N3CCC(c4nccs4)CC3)C2)C1` (single isomer, unassigned) [1-25 Isomer 2, ethyl 2-[4-(1,3-thiazol-2-yl)piperidin-1-yl]-6-azaspiro[3.4]octane-6-carboxylate]: the maximal effect (Emax) in test [1] (relative to ACh) came to 13%; in test [2], 15%; in test [3], 110%; in test [4] it was 128%. For the same molecule, the EC50 in test [1] was over 20000 nM; in test [2], over 20000 nM; in test [3], 50.1 nM; in test [4], 3.98 nM.
Turning to `CCOC(=O)N1CCC2(CC(N3CCC(n4cccc4)CC3)C2)C1` (single isomer, unassigned) [1-32 Isomer 2, ethyl 2-[4-(1H-pyrrol-1-yl)piperidin-1-yl]-6-azaspiro[3.4]octane-6-carboxylate], the Emax in test [1] (relative to ACh) was 16%; in test [2] it was 56%; in test [3], 113%; in test [4], 126%. The EC50 was over 20000 nM in test [1], over 20000 nM in test [2], 79.4 nM in test [3] and 6.31 nM in test [4].
Regarding `COC(=O)N1CCC2(CC(N3CCC(c4nccn4C)CC3)C2)C1` (single isomer, unassigned) [1-6 Isomer 2, methyl 2-[4-(1-methyl-1H-imidazol-2-yl)piperidin-1-yl]-6-azaspiro[3.4]octane-6-carboxylate], the Emax in test [1] (relative to ACh) turned out to be 38%; in test [2], 57%; in test [3], 128%; in test [4], 71%. The EC50 in test [1] is 63.1 nM; in test [2], over 20000 nM; in test [3] it was 1260 nM; in test [4] it was 63.1 nM.
On to `COC(=O)N1CCC2(CC(N3CCC(c4c(C)cnn4C)CC3)C2)C1` (single isomer, unassigned) [1-57 Isomer 2, methyl 2-[4-(1,4-dimethyl-1H-pyrazol-5-yl)piperidin-1-yl]-6-azaspiro[3.4]octane-6-carboxylate], for which the Emax in test [1] (relative to ACh) is 7%; in test [2], 7%; in test [3], 63%; in test [4] it was 69%. Also, the EC50 in test [1] is over 20000 nM; in test [2], over 20000 nM; in test [3], 2000 nM; in test [4], 126 nM.
